Data reported in patent US7129211B2, “Adipocyte Insulin adpinsl with Insulin A and B chains and an effective method of treating type 2 diabetes in a subject using adipocyte insulin” (Council of Scientific and Industrial Research, priority 2002, dated 2006).
Entries after “also recorded” stand apart in the source; their conditions may differ.

What was measured:
[1] = system: streptozotocin induced diabetic rat; test: Biological activity of purified adipocyte insulin on streptozotocin induced diabetic rat; assay type: in vivo
Procedure: FIG. 5. Determination of biological activity of purified adipocyte insulin on streptozotocin induced diabetic rat. (a) The male Sprague Dawley rats of 100–150 g weight were selected for streptozotocin (STZ) treatment. […] (A) STZ untreated rats, only vehicle (0.9% saline) injected (n-6), (B) STZ rat, vehicle injected (n-6), (C) STZ rat injected with AdpInsl 10 μg/100 g body wt of rat (n-6). (D) STZ rat injected with 10 ug/100 g body wt of rat (n=6J porcine insulin. Each value is ±SEM of 6 observations. p<0.001 when C is compared with B,**p<0.05 when C is compared with D.
Insulin injection-Adipocyte IR-insulin (20 ug per 100 gm body weight) from incubation medium or 10 ug AdpInsl or porcine insulin was intraperitoneally injected into the male Sprague Dawley rats weighing between 100–150 g. After 6 hrs of injection blood was collected by retroorbital puncture using capillary tube, centrifuged to collect plasma and glucose content was determined by glucose-glucose oxidase method.

[2] = system: carp adipocytes; test: Determination of insulin activity in vitro: D-14C-glucose uptake by adipocytes; assay type: cell-based, carp Catla catla
Procedure: (b) Effect of AdpInsl and porcine insulin (PI) on glucose uptake by carp adipocytes. Adipocytes 1×10^5 cells/incubation, suspended in MEM containing 1% fetal calf serum and preincubated for 2 hours in the absence of insulin, after addition of D-^14C-glucose uptake was determined by the procedure described under the “Experimental procedures”. *p<0.05 when AdpInsl is compared with porcine insulin.
Determination of insulin activity in vitro—Freshly prepared adipocytes were suspended in the MEM and after 2 h 1.0 microCi of D-(^14C) glucose (final concentration 25 uM| containing was added to the adipocyte incubation. 25 ng/ml of AdpInsl or porcine insulin was added to the incubation and uptake of glucose was measured by following a previously described method (21). Initial rates of glucose uptake was determined from the incubation of adipocyte without insulin. The reaction was stopped at 3 min by washing the cells three times with ice cold MEM in the presence of 0.3 mM phloretin to correct the glucose uptake data from simple diffusion and nonspecific trapping of radioactivity.

AdpInsl: Insulin purified from Catla catla carp adipocytes, A chain SEQ ID No. 1 (21 aa), B chain SEQ ID No. 2 (30 aa) (chain 1 GIVEQCCHKPCSIFELQNYCN; chain 2 PGAPQHLCGSHLVDALYLVCGPTGFFYNPK; listed as Catla catla)
hypoglycemic activity greater than porcine insulin ([1]; STZ rat, 10 ug/100 g body wt each insulin, p<0.05): 25%
hyperglycemia ([1]; STZ rat, 10 ug/100 g body wt i.p., 6 hrs, p<0.001 compared with control): significantly reduced hyperglycemia
hypoglycemic effect compared to porcine insulin ([1]; streptozotocin induced diabetic rat): significantly stronger hypoglycemic effect
increase in glucose uptake by adipocyte ([2]; 25 ng/ml insulin, 1x10^5 cells/incubation, uptake stopped at 3 min): more than 2 fold
stimulation of glucose uptake compared with porcine insulin ([2]; 25 ng/ml of each insulin, p<0.05): significantly higher; also recorded: more actively than porcine insulin
